The nature of series [1]: Solubility of bisantrene base and its oleate ion-pair in water, oils and emulsions. Type of series: physicochemical. As to conditions: in words. The source says: Bisantrene base is insoluble in water, oils, oil phase of emulsions or preformed commercial, nutritional emulsions such as Intralipid® and Liposyn®. When Bisantrene base forms an ion-pair with oleic acid the solubility of Bisantrene increases in oils or oil phases of emulsions. Additionally, Bisantrene-oleate ion-pair acts as a surfactant, becomes part of an interfacial emulsion film and stabilizes the emulsion in vitro.

The subject of another series is erythrocytes. Briefly: Partitioning of bisantrene in blood. Format: in vitro ADME. As to conditions: in words. The source says:
(§1) In serum and plasma, however due to increase in the pH the solubility drops considerably and this may be the reason that the drug precipitates at the point of infusion. […] Thus, if the drug can be kept in solution long enough to allow complete dilution in the entire blood volume, then the partitioning should take place without the intermediate precipitation.

Series [2] is described as follows: Solubility of bisantrene in selected media and biological fluids (Table IB, FIGS. 1 and 2). Format: physicochemical. The following applies: in words.
Description: as §1

The next series relates to white blood cell counts. Briefly: Group mean white blood cell counts, repeated intravenous infusion in dogs. The following applies: dog. Format: in vivo. The method, then: A comparison study of the group mean white blood cell counts (WBC×10^-3) was conducted separately for both the male and female animals in each group. The WBC counts of all animals were performed 7 days before dosing. Doses were administered on days 0, 21 and 42, whereas additional WBC counts on all animals were made on days 3, 7, 14, 20, 24, 28, 35, 41, 45, 49 and 56. The mean data from this test are recorded in Table VI and the group mean white blood cell counts for males and females are plotted separately in FIGS. 6 and 7 respectively.

Another series concerns peripheral vein of dogs. Description: Peripheral vein irritation, intravenous infusion in peripheral vein of dogs, gross postmortem findings. Format: in vivo, dog. The method, then: (§2) The emulsin drug delivery system formulation of Emulsion 3 in Table III was tested in two species of animals, for peripheral vein irritation in order to determine the occurrence of local injection site adverse reactions. Also tested was a 1.0 mg/ml solution of bisantrene hydrochloride in 5% dextrose/water and a composition of the Emulsion 3 vehicle without bisantrene base. The two species of animals used were rabbits and dogs. The formulations were given intravenously in a peripheral vein using a Butterfly infusion set (Becton, Dickinson Co., Inc., Rutherford, N.J). The marginal ear vein was used in the rabbit and the saphenous or the cephalic vein of the leg was used in the dog.
(§3) The formulations were given below by slow intravenous infusion using a Sage syringe pump (Sage Instruments, Orion Research Inc., Cambridge, Ma.) over a 2 hour period. The animals were restrained but unanesthetized during the infusion. After the infusion, the animals were returned to their cages and offered food. The animals were sacrificed one day after the infusion.
(§4) At sacrifice, the infused vein was opened from the point of infusion and cardiad for several centimeters. […] FIGS. 3, 4 and 5 are comprised of representative photographs of the opened peripheral veins of dogs as hereinabove described and verify the findings stated above.

For series [3], the system named is marginal ear vein of rabbits. Briefly: Peripheral vein irritation, intravenous infusion in marginal ear vein of rabbits, gross postmortem findings. Format: in vivo, rabbit. Also noted: key to External: Reddened / External: Yellow Deposit / Subcutaneous: Hemorrhage / Vascular Lumen: Yellow Deposit / External: Swollen / Subcutaneous: Edema / Subcutaneous: Yellow Deposit / Vascular Lumen: Blood Clot: +: Positive or present.; -: Negative or absent. The method, then: as §2, §3, §4

The subject of the next series is dogs. Briefly: Clinical signs and injection site findings, repeated intravenous infusion in dogs. As to conditions: dog.
For a further series, the system named is plasma protein. As to conditions: cited from earlier work.
The conditions of series [4]: commercial product solution; cited from earlier work.
The next series deals with soft tissues / vein. As to conditions: cited from earlier work.
Series [5] is classed as physicochemical. The method, then: (§5) Because the antiarthritic triazine compound is a base, organic acids as counter-ions were studied to improve drug solubility. […] Additional drug complexes were prepared with various organic and inorganic acids. […] The inherent insolubility of the drug appears to be responsible, to some extent, for the preceding results. In order to overcome the drug insolubility problem one of the objectives considered was to design a dosage form which would improve drug absorption when given by intravenous, intramuscular or intra-articular injection.

Series [6] in a line: Absorption and excretion of antiarthritic triazine compound, candidate dosage forms. As to conditions: in vivo. On the procedure:
as §5

Where [7] appears, read: rabbit, female, 2 h i.v. infusion.
[8] abbreviates: rabbit, male, 2 h i.v. infusion.

Converted amounts (≈) assume the structure as drawn. “Also recorded” adds a separate entry of the source. Where a name gives a salt, the structure may show the parent alone.

Broadly, the Solubility is how much of the substance goes into solution per volume.

As to `C(=N\NC1=NCCN1)/c1c2ccccc2c(/C=N/NC2=NCCN2)c2ccccc12` [Bisantrene, bis(2-imidazolin-2-ylhydrazone)-9,10-anthracenedicarboxaldehyde], the “solubility in water, oils, oil phase of emulsions or preformed commercial nutritional emulsions” value in [1] is “insoluble”. Further, the partitioning in blood result with erythrocytes is listed as “eventually partitions into the erythrocytes which then serve as slow release carriers”. Besides, the “solubility in whole blood” value in series [2] (compared with plasma and serum) is “much greater than in plasma and serum”. For the same compound, the “solubility characteristics of bisantrene” value in series [2] is “very sensitive to temperature changes, pH, and various solutes; also recorded: quite soluble in media useful as candidates for I.V. infusions such as normal saline and 5% dextrose”.

In the case of `C(=N\NC1=NCCN1)/c1c2ccccc2c(/C=N/NC2=NCCN2)c2ccccc12` [Bisantrene HCl], the “group mean white blood cell count” value in the series with white blood cell counts (female, day 3, 10 mg/kg i.v. on days 0, 21, 42) is on record as 6.3 WBC × 10^-3; in the series on white blood cell counts (female, day 7, 10 mg/kg i.v. on days 0, 21, 42) it was 4.5 WBC × 10^-3; in the series on white blood cell counts (female, day 14, 10 mg/kg i.v. on days 0, 21, 42), 8.6 WBC × 10^-3; with white blood cell counts (female, day 20, 10 mg/kg i.v. on days 0, 21, 42) it was 10.5 WBC × 10^-3; in the series with white blood cell counts (female, day 24, 10 mg/kg i.v. on days 0, 21, 42) it was 5.1 WBC × 10^-3; with white blood cell counts (female, day 28, 10 mg/kg i.v. on days 0, 21, 42) it was 4.1 WBC × 10^-3. The “group mean white blood cell count” value in the series with white blood cell counts (female, day 35, 10 mg/kg i.v. on days 0, 21, 42) was 13.0 WBC × 10^-3; in the series on white blood cell counts (female, day 41, 10 mg/kg i.v. on days 0, 21, 42), 9.7 WBC × 10^-3; in the series on white blood cell counts (female, day 45, 10 mg/kg i.v. on days 0, 21, 42), 5.1 WBC × 10^-3; in the series on white blood cell counts (female, day 49, 10 mg/kg i.v. on days 0, 21, 42) it was 6.0 WBC × 10^-3; with white blood cell counts (female, day 56, 10 mg/kg i.v. on days 0, 21, 42), 13.2 WBC × 10^-3; with white blood cell counts (female, day -7 (before dosing)) it was 10.1 WBC × 10^-3. Also, the “group mean white blood cell count” value in the series on white blood cell counts (male, day 3, 10 mg/kg i.v. on days 0, 21, 42) stood at 7.0 WBC × 10^-3; in the series with white blood cell counts (male, day 7, 10 mg/kg i.v. on days 0, 21, 42), 3.7 WBC × 10^-3; with white blood cell counts (male, day 14, 10 mg/kg i.v. on days 0, 21, 42), 11.1 WBC × 10^-3; with white blood cell counts (male, day 20, 10 mg/kg i.v. on days 0, 21, 42), 10.8 WBC × 10^-3; in the series with white blood cell counts (male, day 24, 10 mg/kg i.v. on days 0, 21, 42), 5.1 WBC × 10^-3; in the series on white blood cell counts (male, day 28, 10 mg/kg i.v. on days 0, 21, 42), 2.9 WBC × 10^-3. The “group mean white blood cell count” value turned out to be 13.5 WBC × 10^-3 with white blood cell counts (male, day 35, 10 mg/kg i.v. on days 0, 21, 42); 11.3 WBC × 10^-3 in the series with white blood cell counts (male, day 41, 10 mg/kg i.v. on days 0, 21, 42); 5.3 WBC × 10^-3 in the series with white blood cell counts (male, day 45, 10 mg/kg i.v. on days 0, 21, 42); 3.3 WBC × 10^-3 in the series on white blood cell counts (male, day 49, 10 mg/kg i.v. on days 0, 21, 42); 12.8 WBC × 10^-3 in the series on white blood cell counts (male, day 56, 10 mg/kg i.v. on days 0, 21, 42); 11.3 WBC × 10^-3 in the series with white blood cell counts (male, day -7 (before dosing)). Further, the “yellow-orange deposit in vascular-lumen, photograph of dog vein” value in the series on peripheral vein of dogs (FIGS. 3A, 3B, 4A, 5A, listed as bisantrene hydrochloride) is on record as “clearly shows the yellow-orange deposits in the vascular-lumen”. The “yellow or yellow-orange deposits in vascular-lumen” value (in the series with peripheral vein of dogs (peripheral vein of dogs); in series [3] (marginal ear vein of rabbits)) was “yellow or yellow-orange deposits which result” each time. In addition, the “External: Reddened” value is “+” in series [3] (setting [7]) and “-” in [3] (setting [8]). Moreover, the “External: Yellow Deposit” value in [3] (setting [7]) is on record as “+”; in series [3] (setting [8]) it was “-”. In addition, the “Subcutaneous: Hemorrhage” value in [3] (setting [7]) and in series [3] (setting [8]) was “-” throughout. For the same compound, the “Vascular Lumen: Yellow Deposit” value in [3] (setting [7]) and in [3] (setting [8]) was “+” each time. Also, the “External: Swollen” value in [3] (setting [8]) was “-”. In addition, the “Subcutaneous: Edema” value in series [3] (setting [8]) is recorded as “+”. The “Subcutaneous: Yellow Deposit” value in series [3] (setting [8]) is “-”. The “Vascular Lumen: Blood Clot” value in series [3] (setting [8]) is given as “-”. The “clinical signs during the intravenous infusion” value in the series with dogs (10 mg/kg, about 2 h infusion) was “none was apparent”. In the series with dogs (10 mg/kg, about 2 h infusion), the “swelling of the infused leg” value is reported as “three”. Moreover, the “local injection site deposits or binding of the drug, inflammation and phlebitis” value in the series on dogs (conclusion of study) is “present”.

As to `CCCCCCCC/C=C\CCCCCCCC(=O)O` [oleic acid], the “molecules bound with one molecule of typical plasma protein” value with plasma protein is “nine”.

As for `C(=NNC1=NCCN1)c1c2ccccc2c(C=NNC2=NCCN2)c2ccccc12` [Bisantrene-oleate ion-pair], the “solubility in oils or oil phases of emulsions” value in series [1] (ion-pair with oleic acid) is “increases”.

As to `CC(C)NCC(O)COc1cccc2ccccc12` (racemic) [Inderal, propanolol], the “Ambient Solution pH” value in [4] was 3.50.

As to `CC(=O)Nc1ccc(OCC(O)CNC(C)C)cc1` (centres unmarked) [Eraldin, practolol], the “Ambient Solution pH” value in series [4] is 5.80.

For `C[C@H](N)[C@H](O)c1cccc(O)c1` [Aramine, metaraminol], the “Ambient Solution pH” value in series [4] is given as 3.60.

In the case of `COc1cccc2c1C(=O)c1c(O)c3c(c(O)c1C2=O)C[C@@](O)(C(=O)CO)C[C@@H]3O[C@H]1C[C@H](N)[C@H](O)[C@H](C)O1` [Adriamycin, Doxorubicin], the “effect of extravasation into the soft tissues” value in the series on soft tissues / vein (intravenous administration in cancer therapy) was “massive tissue necrosis about the site of the attempted intravenous administration”.

Regarding `OCCOCCN1CCN(C(c2ccccc2)c2ccc(Cl)cc2)CC1` (centres unmarked) [Atarax, hydroxyzine], the “Ambient Solution pH” value in [4] is on record as 5.60.

As to `CC(C)(C)C(C)(C)Nc1nc(NC(C)(C)C(C)(C)C)nc(N2CC3CCC(CC3)C2)n1` [Antiarthritic Triazine Compound, 3-[4,6-bis[(1,1-2,2-tetramethylpropyl)amino]-s-triazin-2-yl]-3-azabicyclo[3.2.2]nonane], in series [5], the Solubility was found to be 300 µg/mL (≈ 697 µM), the “increase of solubility not more than” value was 500 to 1000 µg/mL and the solubility in water result is “insignificant solubility in water”. In [6], the “parenteral absorption of the drug” value is “negligible”. The oral absorption result in series [6] (po) is reported as “slightly better”.

Take `C(=N\NC1=NCCN1)/c1c2ccccc2c(/C=N/NC2=NCCN2)c2ccccc12` [bisantrene dihydrochloride]: the “problem likely to occur on intravenous injection” value with soft tissues / vein (aqueous solution i.v. in mammals) is given as “chemical phlebitis”.
